In brackets after ≈: the same amount, converted by molar mass.
Columns and labels:
Streptococcus pneumoniae [1] = test: Antibacterial activity against Streptococcus pneumoniae R6 Tr10 harboring gyrA Ser81Tyr parC Ser79Tyr mutant gene by agar dilution method; type: functional
Streptococcus pneumoniae [2] = test: Antibacterial activity against Streptococcus pneumoniae CIP104485 by agar dilution method; type: functional; details: CIP1044
Streptococcus pneumoniae [3] = test: Antibacterial activity against Streptococcus pneumoniae CP1000 by agar dilution method; type: functional
Streptococcus pneumoniae [4] = test: Antibacterial activity against Streptococcus pneumoniae H548 clinical isolate harboring gyrA Ser81Phe mutant gene by agar disk diffusion method; type: functional
Streptococcus pneumoniae [5] = test: Antibacterial activity against Streptococcus pneumoniae U2A1060 harboring gyrA Ser81Phe parC Asp83His mutant gene by agar disk diffusion method; type: functional
Streptococcus pneumoniae [6] = test: Antibacterial activity against Streptococcus pneumoniae CIP104485 by agar disk diffusion method; type: functional, CIP1044
Streptococcus pneumoniae [7] = test: Antibacterial activity against Streptococcus pneumoniae U2A1050 harboring gyrA Ser81Phe mutant gene by agar dilution method; type: functional
Streptococcus pneumoniae [8] = test: Antibacterial activity against Streptococcus pneumoniae U2A1056 harboring gyrA Ser81Tyr parC Asp83His mutant gene by agar disk diffusion method; type: functional
Streptococcus pneumoniae [9] = test: Antibacterial activity against Streptococcus pneumoniae U2A1693 harboring parC Asp83Asn mutant gene by agar dilution method; type: functional
Streptococcus pneumoniae [10] = test: Antibacterial activity against Streptococcus pneumoniae U2A1413 harboring parC Ser79Tyr mutant gene by agar dilution method; type: functional
Streptococcus pneumoniae [11] = test: Antibacterial activity against Streptococcus pneumoniae U2A1056 harboring gyrA Ser81Tyr parC Asp83His mutant gene by agar dilution method; type: functional
Streptococcus pneumoniae [12] = test: Antibacterial activity against Streptococcus pneumoniae U2A1681 harboring parC Ser79Tyr Asp83Ala mutant gene by agar disk diffusion method; type: functional
Streptococcus pneumoniae [13] = test: Antibacterial activity against Streptococcus pneumoniae U2A1413 harboring parC Ser79Tyr mutant gene by agar disk diffusion method; type: functional
Streptococcus pneumoniae [14] = test: Antibacterial activity against Streptococcus pneumoniae U2A1686 harboring gyrA Glu85Lys mutant gene by agar disk diffusion method; type: functional
Streptococcus pneumoniae [15] = test: Antibacterial activity against Streptococcus pneumoniae R6 Tr10 harboring gyrA Ser81Tyr parC Ser79Tyr mutant gene by agar disk diffusion method; type: functional
Streptococcus pneumoniae [16] = test: Antibacterial activity against Streptococcus pneumoniae CP1000 by agar disk diffusion method; type: functional
Streptococcus pneumoniae [17] = test: Antibacterial activity against Streptococcus pneumoniae R6 Tr6 harboring gyrA Ser81Phe mutant gene by agar disk diffusion method; type: functional
Streptococcus pneumoniae [18] = test: Antibacterial activity against Streptococcus pneumoniae U2A1411 harboring parC Asp83Gly mutant gene by agar dilution method; type: functional
Streptococcus pneumoniae [19] = test: Antibacterial activity against Streptococcus pneumoniae R6 Tr1 harboring parC Ser79Tyr mutant gene by agar disk diffusion method; type: functional
Streptococcus pneumoniae [20] = test: Antibacterial activity against Streptococcus pneumoniae U2A1693 harboring parC Asp83Asn mutant gene by agar disk diffusion method; type: functional
Streptococcus pneumoniae [21] = test: Antibacterial activity against Streptococcus pneumoniae U2A1051 harboring gyrA Ser81Tyr mutant gene by agar disk diffusion method; type: functional
Streptococcus pneumoniae [22] = test: Antibacterial activity against Streptococcus pneumoniae R6 by agar dilution method; type: functional
Streptococcus pneumoniae [23] = test: Antibacterial activity against Streptococcus pneumoniae U2A1686 harboring gyrA Glu85Lys mutant gene by agar dilution method; type: functional
Streptococcus pneumoniae [24] = test: Antibacterial activity against Streptococcus pneumoniae U2A1053 harboring parC Ser79Phe mutant gene by agar disk diffusion method; type: functional
Streptococcus pneumoniae [25] = test: Antibacterial activity against Streptococcus pneumoniae U2A1266 harboring gyrA Ser81Cys mutant gene by agar disk diffusion method; type: functional
Streptococcus pneumoniae [26] = test: Antibacterial activity against Streptococcus pneumoniae U2A1681 harboring parC Ser79Tyr Asp83Ala mutant gene by agar dilution method; type: functional
Streptococcus pneumoniae [27] = test: Antibacterial activity against Streptococcus pneumoniae U2A1050 harboring gyrA Ser81Phe mutant gene by agar disk diffusion method; type: functional
Streptococcus pneumoniae [28] = test: Antibacterial activity against Streptococcus pneumoniae U2A1060 harboring gyrA Ser81Phe parC Asp83His mutant gene by agar dilution method; type: functional
Streptococcus pneumoniae [29] = test: Antibacterial activity against Streptococcus pneumoniae R6 Tr1 harboring parC Ser79Tyr mutant gene by agar dilution method; type: functional
Streptococcus pneumoniae [30] = test: Antibacterial activity against Streptococcus pneumoniae H548 clinical isolate harboring gyrA Ser81Phe mutant gene by agar dilution method; type: functional
Streptococcus pneumoniae [31] = test: Antibacterial activity against Streptococcus pneumoniae U2A1266 harboring gyrA Ser81Cys mutant gene by agar dilution method; type: functional
Streptococcus pneumoniae [32] = test: Antibacterial activity against Streptococcus pneumoniae U2A1053 harboring parC Ser79Phe mutant gene by agar dilution method; type: functional
Streptococcus pneumoniae [33] = test: Antibacterial activity against Streptococcus pneumoniae R6 Tr6 harboring gyrA Ser81Phe mutant gene by agar dilution method; type: functional
Streptococcus pneumoniae [34] = test: Antibacterial activity against Streptococcus pneumoniae U2A1051 harboring gyrA Ser81Tyr mutant gene by agar dilution method; type: functional
Streptococcus pneumoniae [35] = test: Antibacterial activity against Streptococcus pneumoniae U2A1411 harboring parC Asp83Gly mutant gene by agar disk diffusion method; type: functional
Streptococcus pneumoniae [36] = test: Antibacterial activity against Streptococcus pneumoniae R6 by agar disk diffusion method; type: functional
Streptococcus pneumoniae [37] = test: Antibacterial activity against Streptococcus pneumoniae U2A1414 harboring gyrA Glu85Lys parC Ser79Phe mutant gene by agar disk diffusion method; type: functional
Streptococcus pneumoniae [38] = test: Antibacterial activity against Streptococcus pneumoniae U2A1414 harboring gyrA Glu85Lys parC Ser79Phe mutant gene by agar dilution method; type: functional

SMILES: CCn1cc(C(=O)O)c(=O)c2cc(F)c(N3CCNCC3)cc21 [NORFLOXACIN]
- MIC (Streptococcus pneumoniae [1]): 128 mg/L (≈ 401 µM)
- MIC (Streptococcus pneumoniae [2]): 4 mg/L (≈ 12.5 µM)
- MIC (Streptococcus pneumoniae [3]): 4 mg/L (≈ 12.5 µM)
- diameter of the inhibition zone (DIZ) (Streptococcus pneumoniae [4]): 6 mm
- diameter of the inhibition zone (DIZ) (Streptococcus pneumoniae [5]): 6 mm
- diameter of the inhibition zone (DIZ) (Streptococcus pneumoniae [6]): 19 mm
- MIC (Streptococcus pneumoniae [7]): 8 mg/L (≈ 25.1 µM)
- diameter of the inhibition zone (DIZ) (Streptococcus pneumoniae [8]): 6 mm
- MIC (Streptococcus pneumoniae [9]): 64 mg/L (≈ 200 µM)
- MIC (Streptococcus pneumoniae [10]): 32 mg/L (≈ 100 µM)
- MIC (Streptococcus pneumoniae [11]): 128 mg/L (≈ 401 µM)
- diameter of the inhibition zone (DIZ) (Streptococcus pneumoniae [12]): 6 mm
- diameter of the inhibition zone (DIZ) (Streptococcus pneumoniae [13]): 6 mm
- diameter of the inhibition zone (DIZ) (Streptococcus pneumoniae [14]): 22 mm
- diameter of the inhibition zone (DIZ) (Streptococcus pneumoniae [15]): 6 mm
- diameter of the inhibition zone (DIZ) (Streptococcus pneumoniae [16]): 21 mm
- diameter of the inhibition zone (DIZ) (Streptococcus pneumoniae [17]): 18 mm
- MIC (Streptococcus pneumoniae [18]): 256 mg/L (≈ 802 µM)
- diameter of the inhibition zone (DIZ) (Streptococcus pneumoniae [19]): 6 mm
- diameter of the inhibition zone (DIZ) (Streptococcus pneumoniae [20]): 6 mm
- diameter of the inhibition zone (DIZ) (Streptococcus pneumoniae [21]): 18 mm
- MIC (Streptococcus pneumoniae [22]): 4 mg/L (≈ 12.5 µM)
- MIC (Streptococcus pneumoniae [23]): 4 mg/L (≈ 12.5 µM)
- diameter of the inhibition zone (DIZ) (Streptococcus pneumoniae [24]): 6 mm
- diameter of the inhibition zone (DIZ) (Streptococcus pneumoniae [25]): 13 mm
- MIC (Streptococcus pneumoniae [26]): 256 mg/L (≈ 802 µM)
- diameter of the inhibition zone (DIZ) (Streptococcus pneumoniae [27]): 16 mm
- MIC (Streptococcus pneumoniae [28]): 256 mg/L (≈ 802 µM)
- MIC (Streptococcus pneumoniae [29]): 64 mg/L (≈ 200 µM)
- MIC (Streptococcus pneumoniae [30]): 32 mg/L (≈ 100 µM)
- MIC (Streptococcus pneumoniae [31]): 8 mg/L (≈ 25.1 µM)
- MIC (Streptococcus pneumoniae [32]): 64 mg/L (≈ 200 µM)
- MIC (Streptococcus pneumoniae [33]): 4 mg/L (≈ 12.5 µM)
- MIC (Streptococcus pneumoniae [34]): 8 mg/L (≈ 25.1 µM)
- diameter of the inhibition zone (DIZ) (Streptococcus pneumoniae [35]): 6 mm
- diameter of the inhibition zone (DIZ) (Streptococcus pneumoniae [36]): 19 mm
- diameter of the inhibition zone (DIZ) (Streptococcus pneumoniae [37]): 6 mm
- MIC (Streptococcus pneumoniae [38]): 256 mg/L (≈ 802 µM)

From ChEMBL document CHEMBL1629559, “Real-time PCR detection of gyrA and parC mutations in Streptococcus pneumoniae” (2008)
